US11504367B2, “Compounds and methods for treating oxalate-related diseases” (OxaluRx, Inc., priority 2019, dated 2022)

Target: recombinant full-length human hydroxyacid oxidase 1 (HAO1), the equivalents of hGOX (Homo sapiens (Human), UniProt Q9UJM8)
Test: In-vitro human glycolate oxidase (hGOX) assay (Amplex red fluorescence)
Format: biochemical
Conditions: 6 nM recombinant human GO, 85 μM glycolate, 10 min preincubation
Protocol: The in-vitro glycolate oxidase assay was performed using recombinant full-length human hydroxyacid oxidase 1 (HAO1), the equivalents of hGOX. […] Purified HAO1 was dissolved in assay buffer consisting of 10 mM NaCl, 110 mM KCl, 2 mM MgCl2, 50 mM HEPES (pH 7.4), and 0.01% Triton™ X-100.
The plates were incubated for 10 min at room temperature, at which point Amplex red reagent (50 μM) was added.
The fluorescence intensity signal was measured on a VariosKan LUX instrument using an excitation of 560 nm and an emission of 590 nm. The IC50 values were calculated using Graphpad Prism. The fluorescence signal of wells containing only DMSO was defined as 100% GO activity, while the fluorescence signal without the glycolate substrate was defined as 0% GO activity.

recombinant full-length human hydroxyacid oxidase 1 (HAO1), the equivalents of hGOX, sequence (Q9UJM8 whole entry): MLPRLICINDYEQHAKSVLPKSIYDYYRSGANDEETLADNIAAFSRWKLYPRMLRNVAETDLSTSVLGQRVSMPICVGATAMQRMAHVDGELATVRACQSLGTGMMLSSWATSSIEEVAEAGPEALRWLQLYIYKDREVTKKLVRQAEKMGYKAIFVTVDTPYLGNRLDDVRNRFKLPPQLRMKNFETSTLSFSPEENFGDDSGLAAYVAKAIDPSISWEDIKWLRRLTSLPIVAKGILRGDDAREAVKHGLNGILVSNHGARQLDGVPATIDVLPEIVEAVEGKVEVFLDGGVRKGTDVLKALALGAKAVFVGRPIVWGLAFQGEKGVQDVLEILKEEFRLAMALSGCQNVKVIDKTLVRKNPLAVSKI

IC50 | Compound
4 nM | Cn1nccc1C#Cc1cccc(Oc2[nH]nnc2C(=O)O)c1 [Example 322, 5-(3-(2-(1-Methyl-1H-pyrazol-5-yl)ethynyl)phenoxy)-1H-1,2,3-triazole-4-carboxylic Acid]
10 nM | Cn1ccnc1C#Cc1ccc(Oc2[nH]nnc2C(=O)O)cc1 [Example 333, 5-(4-(2-(1-Methyl-1H-imidazol-2-yl)ethynyl)phenoxy)-1H-1,2,3-triazole-4-carboxylic Acid]
9 nM | O=C(O)c1nn[nH]c1Oc1ccc(C#CC2CCCCC2)cc1 [Example 36, 5-(4-(2-Cyclohexylethynyl)phenoxy)-1H-1,2,3-triazole-4-carboxylic Acid]
2 nM | Cn1ncc2cc(C#Cc3ccc(Oc4[nH]nnc4C(=O)O)cc3)ccc21 [Example 316, 5-(4-(2-(1-Methyl-1H-indazol-5-yl)ethynyl)phenoxy)-1H-1,2,3-triazole-4-carboxylic Acid]
94 nM | O=C(O)c1nn[nH]c1Cc1ccc(C#CCC2CC2)cc1 [Example 364, 5-(4-(3-Cyclopropylprop-1-ynyl)benzyl)-1H-1,2,3-triazole-4-carboxylic Acid]
> 1000 nM | O=C(O)c1nonc1Oc1cccc(C#CCC2CC2)c1 [Example 370, 4-(3-(3-Cyclopropylprop-1-ynyl)phenoxy)-1,2,5-oxadiazole-3-carboxylic Acid]
20 nM | O=C(O)c1nn[nH]c1Oc1cccc(C#CC2CCC3(CC2)OCCO3)c1 [Example 351, 5-(3-(1,4-Dioxaspiro[4.5]decan-8-ylethynyl)phenoxy)-1H-1,2,3-triazole-4-carboxylic Acid]
5 nM | CS(=O)(=O)c1ccc(C#Cc2cc(F)cc(Oc3[nH]nnc3C(=O)O)c2)cc1 [Example 274, 5-(3-Fluoro-5-(2-(4-(methylsulfonyl)phenyl)ethynyl)phenoxy)-1H-1,2,3-triazole-4-carboxylic Acid]
1 nM | O=C(O)c1nn[nH]c1Oc1cccc(C#Cc2ccc3cn[nH]c3c2)c1 [Example 330, 5-(3-(2-(1H-Indazol-6-yl)ethynyl)phenoxy)-1H-1,2,3-triazole-4-carboxylic Acid]
5 nM | O=C(O)c1nn[nH]c1Oc1cccc(C#CCc2ccccc2)c1 [Example 349, 5-(3-(3-Phenylprop-1-ynyl)phenoxy)-1H-1,2,3-triazole-4-carboxylic Acid]
3 nM | O=C(O)c1ccc(C#Cc2cc(F)cc(Oc3[nH]nnc3C(=O)O)c2)cc1 [Example 265, 5-(3-Fluoro-5-(2-(4-carboxyphenyl)ethynyl)phenoxy)-1H-1,2,3-triazole-4-carboxylic Acid]
0.3 nM | O=C(O)c1nn[nH]c1Oc1ccc(C#Cc2cccc(Cl)c2)cc1 [Example 291, 5-(4-(2-(3-Chlorophenyl)ethynyl)phenoxy)-1H-1,2,3-triazole-4-carboxylic Acid]
> 1000 nM | Cc1[nH]nc(Oc2cccc(C#CCC3CC3)c2)c1C(=O)O [Example 359, 3-(3-(3-Cyclopropylprop-1-ynyl)phenoxy)-5-methyl-1H-pyrazole-4-carboxylic Acid]
> 1000 nM | CCOC(=O)c1nn[nH]c1S(=O)(=O)c1cccc(C#CCC(C)C)c1 [Example 375, Ethyl 5-(3-(4-methylpent-1-ynyl)phenylsulfonyl)-1H-1,2,3-triazole-4-carboxylate]
1 nM | O=C(O)c1nn[nH]c1Oc1ccc(C#Cc2ccccc2)c(F)c1 [Example 146, 5-(3-Fluoro-4-(2-phenylethynyl)phenoxy)-1H-1,2,3-triazole-4-carboxylic Acid]
62 nM | CC(C)C#Cc1ccc(Oc2[nH]nnc2C(=O)O)cc1 [Example 9, 5-(4-(3-Methylbut-1-ynyl)phenoxy)-1H-1,2,3-triazole-4-carboxylic Acid]

IC50 | Compound
3 nM | CS(=O)(=O)c1cccc(C#Cc2cc(F)cc(Oc3[nH]nnc3C(=O)O)c2)c1 [Example 275, 5-(3-Fluoro-5-(2-(3-(methylsulfonyl)phenyl)ethynyl)phenoxy)-1H-1,2,3-triazole-4-carboxylic Acid]
> 1000 nM | Cc1[nH]nc(Oc2ccc(C#CCC3CC3)cc2)c1C(=O)O [Example 361, 3-(4-(3-Cyclopropylprop-1-ynyl)phenoxy)-5-methyl-1H-pyrazole-4-carboxylic Acid]
1 nM | O=C(O)c1nn[nH]c1Oc1ccc(C#Cc2ccc3[nH]ncc3c2)cc1 [Example 108, 5-(4-(2-(1H-Indazol-5-yl)ethynyl)phenoxy)-1H-1,2,3-triazole-4-carboxylic Acid]
2 nM | Cn1ccc(C#Cc2ccc(Oc3[nH]nnc3C(=O)O)cc2)cc1=O [Example 256, 4-(4-((1-Methyl-2-oxo-1,2-dihydropyridin-4-yl)ethynyl)phenoxy)-1H-1,2,3-triazole-5-carboxylic Acid]
3 nM | O=C(O)c1nn[nH]c1Oc1cccc(C#Cc2ccncc2)c1 [Example 313, 5-(3-(2-(Pyridin-4-yl)ethynyl)phenoxy)-1H-1,2,3-triazole-4-carboxylic Acid]
6 nM | O=C(O)c1nn[nH]c1Oc1cccc(C#Cc2ncccn2)c1 [Example 165, 5-(3-(2-(Pyrimidin-2-yl)ethynyl)phenoxy)-1H-1,2,3-triazole-4-carboxylic Acid]
10 nM | N#CCCC#Cc1cccc(Oc2[nH]nnc2C(=O)O)c1 [Example 350, 5-(3-(4-Cyanobut-1-ynyl)phenoxy)-1H-1,2,3-triazole-4-carboxylic Acid]
2 nM | N#Cc1cccc(C#Cc2cc(F)cc(Oc3[nH]nnc3C(=O)O)c2)c1 [Example 277, 4-(3-((3-Cyanophenyl)ethynyl)-5-fluorophenoxy)-1H-1,2,3-triazole-5-carboxylic Acid]
2 nM | Cn1ncc2cc(C#Cc3cccc(Oc4[nH]nnc4C(=O)O)c3)ccc21 [Example 317, 5-(3-(2-(1-Methyl-1H-indazol-5-yl)ethynyl)phenoxy)-1H-1,2,3-triazole-4-carboxylic Acid]
3 nM | O=C(O)c1nn[nH]c1Oc1ccc(C#Cc2cccnc2)cc1 [Example 309, 5-(4-(2-(Pyridin-3-yl)ethynyl)phenoxy)-1H-1,2,3-triazole-4-carboxylic Acid]
4 nM | O=C(O)c1nn[nH]c1Oc1ccc(C#Cc2ccncc2)cc1 [Example 310, 5-(4-(2-(Pyridin-4-yl)ethynyl)phenoxy)-1H-1,2,3-triazole-4-carboxylic Acid]
34 nM | O=C1CCC(C#Cc2cccc(Oc3[nH]nnc3C(=O)O)c2)CC1 [Example 352, 5-(3-((4-Oxocyclohexyl)ethynyl)phenoxy)-1H-1,2,3-triazole-4-carboxylic Acid]
3 nM | COc1cccc(C#Cc2ccc(Oc3[nH]nnc3C(=O)O)cc2)c1 [Example 281, 5-(4-(2-(3-Methoxyphenyl)ethynyl)phenoxy)-1H-1,2,3-triazole-4-carboxylic Acid]
6 nM | O=C(O)c1nn[nH]c1Sc1ccc(C#CCC2CC2)cc1 [Example 355, 5-(4-(3-Cyclopropylprop-1-ynyl)phenylthio)-1H-1,2,3-triazole-4-carboxylic Acid]
40 nM | CC(C)(F)CC#Cc1cccc(Oc2[nH]nnc2C(=O)O)c1 [Example 378, 5-(3-(4-Fluoro-4-methylpent-1-ynyl)phenoxy)-1H-1,2,3-triazole-4-carboxylic Acid]
3 nM | CS(=O)(=O)c1cccc(C#Cc2ccc(Oc3[nH]nnc3C(=O)O)cc2)c1 [Example 254, 5-(4-(2-(3-(Methylsulfonyl)phenyl)ethynyl)phenoxy)-1H-1,2,3-triazole-4-carboxylic Acid]
